# Test results taken from patent publication US11939314B2, “Quinolin-2-one derivatives” (MERCK PATENT GMBH, priority 2016, dated 2024).
# Legend:
# c-Kit(V654A) = target: T1, c-Kit(V654A) (Homo sapiens, UniProt P10721, V654A); assay: c-Kit(V654A) assay; type: biochemical; details: recombinant human c-Kit aa 544-end, 200 μM ATP, 1.4E-06 means 1.4×10^−6, read-out: Inhibition (IC50) of c-KIT (V654A)
# T1 construct: amino acids 544-end containing the V654A mutation; GST (N)
# Protocol: (§1) c-Kit(V654A) (N-terminal GST-tagged, recombinant human c-Kit, amino acids 544-end containing the V654A mutation) is incubated with 8 mM MOPS pH 7.0, 0.2 mM EDTA, 250 μM GGMEDIYEFMGGKKK, 10 mM MgAcetate and [gamma-33P-ATP] (specific activity approx. 500 cpm/pmol, concentration 200 μM). The reaction is initiated by the addition of the MgATP mix. After incubation for 40 minutes at room temperature, the reaction is stopped by the addition of 3% phosphoric acid solution. 10 μL of the reaction is then spotted onto a P30 filtermat and washed three times for 5 minutes in 75 mM phosphoric acid and once in methanol prior to drying and scintillation counting.
# PDGFRalpha(V561D) = target: T2, PDGFRalpha(V561D) (Homo sapiens, UniProt P16234, V561D); assay: PDGFRalpha(V561D) assay; type: biochemical; details: recombinant human PDGFRalpha aa 550-end, 200 μM ATP, 1.4E-06 means 1.4×10^−6, read-out: Inhibition (IC50) of PDGFRα (V561D)
# T2 construct: recombinant human PDGFRalpha, amino acids 550end containing the V561 D mutation; 6His (N)
# T2 sequence (P16234 550-1089 V561D): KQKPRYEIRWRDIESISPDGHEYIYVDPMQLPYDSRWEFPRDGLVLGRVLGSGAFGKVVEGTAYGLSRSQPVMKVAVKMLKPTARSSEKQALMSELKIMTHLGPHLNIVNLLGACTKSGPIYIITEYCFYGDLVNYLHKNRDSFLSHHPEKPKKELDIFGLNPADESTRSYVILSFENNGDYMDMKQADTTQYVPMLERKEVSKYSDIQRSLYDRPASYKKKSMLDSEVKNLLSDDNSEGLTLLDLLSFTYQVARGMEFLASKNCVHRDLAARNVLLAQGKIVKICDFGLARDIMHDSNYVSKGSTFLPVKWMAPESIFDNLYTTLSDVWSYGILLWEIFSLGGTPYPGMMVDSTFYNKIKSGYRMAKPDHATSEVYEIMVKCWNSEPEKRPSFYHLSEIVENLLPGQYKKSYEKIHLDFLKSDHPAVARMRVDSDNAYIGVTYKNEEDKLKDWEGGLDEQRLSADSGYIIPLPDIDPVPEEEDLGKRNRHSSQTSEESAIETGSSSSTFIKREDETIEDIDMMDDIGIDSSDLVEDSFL
# Protocol: as §1, with “PDGFRalpha(V561D)” for “c-Kit(V654A)”, “6His-tagged,” for “GST-tagged,”, “PDGFRalpha,” for “c-Kit,”, “550end” for “544-end”, “V561 D” for “V654A”
# T1 sequence (P10721 544-976 V654A): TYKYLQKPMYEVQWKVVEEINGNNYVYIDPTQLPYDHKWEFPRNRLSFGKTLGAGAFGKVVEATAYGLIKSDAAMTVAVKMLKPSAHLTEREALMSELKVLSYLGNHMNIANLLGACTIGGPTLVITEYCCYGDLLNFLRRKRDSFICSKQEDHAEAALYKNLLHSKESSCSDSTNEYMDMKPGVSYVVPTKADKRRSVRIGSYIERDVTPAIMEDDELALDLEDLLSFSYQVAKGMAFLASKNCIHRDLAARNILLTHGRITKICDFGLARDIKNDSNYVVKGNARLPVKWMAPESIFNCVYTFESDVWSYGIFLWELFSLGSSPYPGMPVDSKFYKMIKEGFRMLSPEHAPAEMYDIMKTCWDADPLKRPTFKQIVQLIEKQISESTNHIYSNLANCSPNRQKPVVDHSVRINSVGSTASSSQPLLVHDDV
Compound,IC50 (c-Kit(V654A)),IC50 (PDGFRalpha(V561D))
"O=C1COCCN1c1ccc(-n2cc(-c3cc4ccccc4[nH]c3=O)nn2)cn1 [A34, 3-{1-[6-(3-oxo-morpholin-4-yl)-pyridin-3-yl]-1H-[1,2,3]triazol-4-yl}-1H-quinolin-2-one]",5800 nM,110 nM
"Cc1cc(C(=O)N2CCOCC2)ccc1-n1cc(-c2cc3ccccc3[nH]c2=O)nn1 [A35, 3-{1-[2-methyl-4-(morpholine-4-carbonyl)-phenyl]-1H-[1,2,3]triazol-4-yl}-1H-quinolin-2-one]",650 nM,49 nM
"O=C(c1ccc(-n2cc(-c3cc4ccccc4[nH]c3=O)nn2)cc1F)N1CCOCC1 [A37, 3-{1-[3-fluoro-4-(morpholine-4-carbonyl)-phenyl]-1H-[1,2,3]triazol-4-yl}-1H-quinolin-2-one]",38 nM,9 nM
"CNC(=O)c1ccc(-n2cc(-c3cc4ccccc4[nH]c3=O)nn2)cc1F [A39, 2-fluoro-N-methyl-4-[4-(2-oxo-1,2-dihydro-quinolin-3-yl)-[1,2,3]triazol-1-yl]-benzamide]",74 nM,23 nM
"O=c1[nH]c2ccncc2cc1-c1cn(-c2ccc(F)cc2)nn1 [A45, 3-[1-(4-fluoro-phenyl)-1H-[1,2,3]triazol-4-yl]-1H-[1,6]naphthyridin-2-one]",1100 nM,330 nM
"O=c1[nH]c2ccncc2cc1-c1cnn(-c2ccccc2)c1 [A46, 3-(1-phenyl-1H-pyrazol-4-yl)-1H-[1,6]naphthyridin-2-one]",370 nM,150 nM
"O=C(c1ccc(-n2cc(-c3cc4cccnc4[nH]c3=O)nn2)cc1)N1CCOCC1 [A47, 3-{1-[4-(morpholine-4-carbonyl)-phenyl]-1H-[1,2,3]triazol-4-yl}-1H-[1,8]naphthyridin-2-one]",24 nM,7 nM
"O=C(c1ccc(-n2cc(-c3cc4ccccc4[nH]c3=O)nn2)cc1)N1CCNCC1 [A50, 3-{1-[4-(piperazine-1-carbonyl)-phenyl]-1H-[1,2,3]triazol-4-yl}-1H-quinolin-2-one]",24 nM,14 nM
"O=C(NC1CCNCC1)c1ccc(-n2cc(-c3cc4cccnc4[nH]c3=O)nn2)cc1 [A51, 4-[4-(2-oxo-1,2-dihydro-[1,8]naphthyridin-3-yl)-[1,2,3]triazol-1-yl]-N-piperidin-4-yl-benzamide]",91 nM,22 nM
"O=c1[nH]c2ccccc2cc1-c1cn(-c2ccc(N3CCCNCC3)cc2)nn1 [A55, 3-[1-(4-[1,4]diazepan-1-yl-phenyl)-1H-[1,2,3]triazol-4-yl]-1H-quinolin-2-one]",14 nM,14 nM
"CN1CCN(C(=O)c2ccc(-n3cc(-c4cc5cc(F)ccc5[nH]c4=O)nn3)cc2)CC1 [A56, 6-fluoro-3-{1-[4-(4-methyl-piperazine-1-carbonyl)-phenyl]-1H-[1,2,3]triazol-4-yl}-1H-quinolin-2-one]",7 nM,5 nM
"CN1CCC(NC(=O)c2ccc(-n3cc(-c4cc5ccccc5[nH]c4=O)nn3)cc2)CC1 [A58, N-(1-Methyl-piperidin-4-yl)-4-[4-(2-oxo-1,2-dihydro-quinolin-3-yl)-[1,2,3]triazol-1-yl]-benzamide]",44 nM,21 nM
"CN1CCC(COc2ccc(-n3cc(-c4cc5ccccc5[nH]c4=O)nn3)cc2)CC1 [A60, 3-{1-[4-(1-methyl-piperidin-4-ylmethoxy)-phenyl]-1H-[1,2,3]triazol-4-yl}-1H-quinolin-2-one]",38 nM,33 nM
"CN(C)C1CCN(C(=O)c2ccc(-n3cc(-c4cc5ccccc5[nH]c4=O)nn3)cc2)CC1 [A61, 3-{1-[4-(4-dimethylamino-piperidine-1-carbonyl)-phenyl]-1H-[1,2,3]triazol-4-yl}-1H-quinolin-2-one]",29 nM,11 nM
"CN1CCN(C(=O)c2ccc(-n3cc(-c4cc5cnccc5[nH]c4=O)nn3)cc2)CC1 [A62, 3-{1-[4-(4-methyl-piperazine-1-carbonyl)-phenyl]-1H-[1,2,3]triazol-4-yl}-1H-[1,6]naphthyridin-2-one]",200 nM,46 nM
"CN1CCN(C(=O)c2ccc(-n3cc(-c4cc5cccnc5[nH]c4=O)nn3)cc2)CC1 [A64, 3-{1-[4-(4-methyl-piperazine-1-carbonyl)-phenyl]-1H-[1,2,3]triazol-4-yl}-1H-[1,8]naphthyridin-2-one]",44 nM,16 nM

# The remaining compounds from weak to strong by IC50 (c-Kit(V654A)), led by results:
IC50 (c-Kit(V654A)),IC50 (PDGFRalpha(V561D)),Compound
3200 nM,580 nM,"COc1cc(-n2cc(-c3cc4ccccc4[nH]c3=O)nn2)cc(OC)c1OC [A38, 3-[1-(3,4,5-trimethoxy-phenyl)-1H-[1,2,3]triazol-4-yl]-1H-quinolin-2-one]"
490 nM,160 nM,"O=c1[nH]c2ccccc2cc1-c1cn(-c2cnc(N3CCNCC3)nc2)nn1 [A54, 3-[1-(2-piperazin-1-yl-pyrimidin-5-yl)-1H-[1,2,3]triazol-4-yl]-1H-quinolin-2-one]"
240 nM,44 nM,"O=C(c1ccc(-n2cc(-c3cc4cnccc4[nH]c3=O)nn2)cc1)N1CCOCC1 [A41, 3-{1-[4-(morpholine-4-carbonyl)-phenyl]-1H-[1,2,3]triazol-4-yl}-1H-[1,6]naphthyridin-2-one]"
150 nM,42 nM,"O=C1COCCN1c1ccc(-n2cc(-c3cc4ccncc4[nH]c3=O)nn2)cc1 [A49, 3-{1-[4-(3-oxo-morpholin-4-yl)-phenyl]-1H-[1,2,3]triazol-4-yl}-1H-[1,7]naphthyridin-2-one]"
140 nM,170 nM,"O=c1[nH]c2ncccc2cc1-c1cnn(-c2ccccc2)c1 [A43, 3-(1-phenyl-1H-pyrazol-4-yl)-1H-[1,8]naphthyridin-2-one]"
130 nM,40 nM,"CN1CCN(C(=O)c2ccc(-n3cc(-c4cc5ccncc5[nH]c4=O)nn3)cc2)CC1 [A63, 3-{1-[4-(4-methyl-piperazine-1-carbonyl)-phenyl]-1H-[1,2,3]triazol-4-yl}-1H-[1,7]naphthyridin-2-one]"
84 nM,38 nM,"CN(C)C(=O)c1ccc(-n2cc(-c3cc4ccncc4[nH]c3=O)nn2)cc1 [A42, N,N-dimethyl-4-[4-(2-oxo-1,2-dihydro-[1,7]naphthyridin-3-yl)-[1,2,3]triazol-1-yl]-benzamide]"
76 nM,46 nM,"CN1CCC(N(C)C(=O)c2ccc(-n3cc(-c4cc5ccccc5[nH]c4=O)nn3)cc2)CC1 [A59, N-methyl-N-(1-methyl-piperidin-4-yl)-4-[4-(2-oxo-1,2-dihydro-quinolin-3-yl)-[1,2,3]triazol-1-yl]-benzamide]"
64 nM,11 nM,"O=C1COCCN1c1ccc(-n2cc(-c3cc4ccccc4[nH]c3=O)nn2)cc1F [A32, 3-{1-[3-fluoro-4-(3-oxo-morpholin-4-yl)-phenyl]-1H-[1,2,3]triazol-4-yl}-1H-quinolin-2-one]"
29 nM,17 nM,"CC(C)(O)c1ccc(-n2cc(-c3cc4ccccc4[nH]c3=O)nn2)cc1 [A36, 3-{1-[4-(1-hydroxy-1-methyl-ethyl)-phenyl]-1H-[1,2,3]triazol-4-yl}-1H-quinolin-2-one]"
26 nM,7 nM,"Cc1cc(-n2cc(-c3cc4ccccc4[nH]c3=O)nn2)ccc1C(=O)N1CCOCC1 [A40, 3-{1-[3-methyl-4-(morpholine-4-carbonyl)-phenyl]-1H-[1,2,3]triazol-4-yl}-1H-quinolin-2-one]"
22 nM,27 nM,"O=c1[nH]c2ccccc2cc1-c1cn(-c2ccc(N3CCNCC3)cc2)nn1 [A52, 3-[1-(4-piperazin-1-yl-phenyl)-1H-[1,2,3]triazol-4-yl]-1H-quinolin-2-one]"
20 nM,3 nM,"O=C1COCCN1c1ccc(-n2cc(-c3cc4cc(F)ccc4[nH]c3=O)nn2)cc1F [A33, 6-fluoro-3-{1-[3-fluoro-4-(3-oxo-morpholin-4-yl)-phenyl]-1H-[1,2,3]triazol-4-yl}-1H-quinolin-2-one]"
17 nM,19 nM,"O=C(c1ccc(-n2cc(-c3cc4c(F)cccc4[nH]c3=O)nn2)cc1)N1CCOCC1 [A48, 5-fluoro-3-{1-[4-(morpholine-4-carbonyl)-phenyl]-1H-[1,2,3]triazol-4-yl}-1H-quinolin-2-one]"
15 nM,6 nM,"CN1CCN(C(=O)c2ccc(-n3cc(-c4cc5ccccc5[nH]c4=O)nn3)cc2)CC1 [A57, 3-{1-[4-(4-methyl-piperazine-1-carbonyl)-phenyl]-1H-[1,2,3]triazol-4-yl}-1H-quinolin-2-one]"
11 nM,9 nM,"O=C(c1ccc(-n2cc(-c3cc4cc(F)ccc4[nH]c3=O)nn2)cc1)N1CCNCC1 [A53, 6-fluoro-3-{1-[4-(piperazine-1-carbonyl)-phenyl]-1H-[1,2,3]triazol-4-yl}-1H-quinolin-2-one]"
